Article PMC11931356, “New benzimidazole derivatives containing hydrazone group as anticancer agents: Inhibition of carbonic anhydrase IX and molecular docking studies” (Archiv Der Pharmazie, 2025)

Tests used:
[1] = tested on: L929 (healthy mouse fibroblast cell line); assay: MTT cell viability assay, L929; assay type: cell-based; details: max 100 µM, mean ± SD
Experimental: (§1) Cell lines from the American Type Culture Collection (ATCC) were used to test the human breast adenocarcinoma cell line (MCF7), rat glial tumor (C6), healthy mouse fibroblast cell line (L929), and colon cancer (HT29). Cells were combined with solutions of 1% penicillin (Sigma Aldrich), 10% fetal bovine serum (FBS; Sigma Aldrich), and 89% DMEM (Dulbecco's modified Eagle's medium; Gibco, Thermo Fisher Scientific). The cells were incubated at 37°C with 95% humidity and 5% CO2 to allow the medium to develop.
(§2) All compounds were examined for their cytotoxic effects on the L929, HT29, MCF7, and C6 cell lines using MTT assay. Approximately 1 × 10^4 cells were seeded in each well. Cells were allowed to adhere for 24 h and then the syntheses were applied at different concentrations. All syntheses were run in three repetitions. Wells with a maximum of 100 µM product were incubated for 24 h. Cisplatin was used as the positive control, and all wells devoid of specimens served as negative controls. To identify metabolically active cells, the wells were incubated for 3 h at 37°C after being treated with MTT solution. Following the MTT interaction, DMSO solution was added to the wells after they had been drained. This solution was used to dissolve the formazan crystals, and a color shift indicated how many live cells were present in each well.

HT29 (colon cancer) = assay: MTT cell viability assay, HT29; assay type: cell-based; details: max 100 µM, mean ± SD
Experimental: as §1, §2

[2] = tested on: human breast adenocarcinoma cell line (MCF7); assay: MTT cell viability assay, MCF7; assay type: cell-based; details: max 100 µM, mean ± SD
Experimental: as §1, §2

rat glial tumor (C6) = assay: MTT cell viability assay, C6; assay type: cell-based; details: 24 h incubation, max 100 µM, mean ± SD
Experimental: as §1, §2

CA IX enzyme = assay: Carbonic anhydrase IX inhibition assay (ELISA kit, CA IX protein level); assay type: biochemical, human; details: for Concentration (CA IX protein level, ELISA): ELISA kit, Control 250,225, lower = stronger inhibition, p < 0.001; for Concantration hCA IX: supplement table, same ELISA values
Experimental: The CA IX inhibitor acetazolamide was used as a positive control.
CA‐IX level was measured using the DCA900, R&D Systems ELISA Kit. In brief, 100 μL samples were incubated with 50 μL assay buffer for 2 h at room temperature (RT) in a 96‐well plate. The well was then washed four times with 400 µL wash buffer. After 200 µL of a conjugate buffer incubated at room temperature for 2 hours, the plate was washed four times with wash buffer. It was then incubated with 200 µL of substrate buffer for 30 min at room temperature. After washing, 50 µL of the stop solution was used to terminate the reaction. The plate was read at 450 nm using an Epoch™ microplate spectrophotometer (BioTek). The concentration of CA IX protein in each sample was calculated using a standard curve.

BAX [3] = assay: RT-PCR expression profile, BAX in HT29; assay type: cell-based; details: HT29 cell lines, effective dose, 24 h, vs control group, p < 0.05
Experimental: (§3) Total RNA was first isolated from the cells to which effective doses of compounds 3d and/or 3j were applied at the 24th hour, by the kit protocols, and then cDNA was synthesized from this total RNA. The expression profiles of Caspase 3, BAX, and BCL‐2 genes from the cDNA samples obtained were analyzed with the RT‐PCR device by the kit protocol. Statistical analysis of the data with the ΔΔCT method was performed using the “RT2 profiler RT‐PCR Array Data Analysis version 3.5” (http://pcrdataanalysissabiosciences.com/pcr/arrayanalysis.php) software.

BAX [4] = assay: RT-PCR expression profile, BAX in MCF7; assay type: cell-based, human; details: MCF7 cell lines, effective dose, 24 h, vs control group, p < 0.05
Experimental: as §3

BAX [5] = assay: RT-PCR expression profile, BAX in C6; assay type: cell-based, rat; details: C6 cell lines, effective dose, 24 h, vs control group, p < 0.05
Experimental: as §3

Caspase 3 = assay: RT-PCR expression profile, Caspase 3 in C6; assay type: cell-based, rat; details: C6 cell lines, effective dose, 24 h, vs control group, p < 0.05
Experimental: as §3

Ki67 [6] = assay: Immunofluorescent microscope analysis, Ki67 in C6; assay type: cell-based, rat; details: C6 cell line, compared with the cisplatin-treated group
Experimental: (§4) Immunofluorescent microscope analysis was performed as in the previous study.^[ [33] ^]

Ki67 [7] = assay: Immunofluorescent microscope analysis, Ki67 in MCF7; assay type: cell-based, human; details: MCF7 cell line, compared with the cisplatin-treated group
Experimental: as §4

Ki67 [8] = assay: Immunofluorescent microscope analysis, Ki67 in HT29; assay type: cell-based; details: HT29 cell line, compared with the cisplatin-treated group
Experimental: as §4

Ki67 [9] = assay: Immunofluorescent microscope analysis, Ki67 in L929; assay type: cell-based, mouse; details: L929 cell line, compared with the cisplatin-treated group
Experimental: as §4

BAX [10] = assay: RT-PCR expression profile, BAX in L929; assay type: cell-based, mouse; details: L929 cell lines, effective dose, 24 h, vs control group, p < 0.05
Experimental: as §3

[11] = Mus musculus, L929, 24 h incubation
[12] = Homo sapiens, HT-29, 24 h incubation
[13] = Homo sapiens, MCF7, 24 h incubation

Compound	IC50 ([1]; 24 h incubation) [µM]	IC50 (HT29 (colon cancer); 24 h incubation) [µM]	IC50 ([2]; 24 h incubation) [µM]	IC50 (rat glial tumor (C6)) [µM]	Concentration (CA IX protein level, ELISA) (CA IX enzyme)	Concantration hCA IX (CA IX enzyme)	IC50 [1, 11] [µM]	IC50 (HT29 (colon cancer); [12]) [µM]	IC50 [2, 13] [µM]	IC50 (rat glial tumor (C6); Rattus norvegicus) [µM]	BAX expression increase (BAX [3]) [times]	BAX expression increase (BAX [4]) [times]	BAX expression increase (BAX [5]) [times]	Caspase 3 expression increase (Caspase 3) [times]	Ki67 immunolocalisation rate (Ki67 [6])	Ki67 immunolocalisation rate (Ki67 [7])	Ki67 immunolocalisation rate (Ki67 [8])	Ki67 immunolocalisation rate (Ki67 [9])	BAX expression increase (BAX [10]) [times]
4‐(5‐Cyano‐1H‐benzo[d]imidazol‐2‐yl)‐N′‐[(imidazol‐2‐yl)methylene]benzohydrazide [Compound 3f]	> 100	> 100	> 100	> 100	93,975 pg/mL	93,975 pg/ml													
N.N.[Cl][Pt][Cl] [Cisplatin, reference compound]	88.8 ± 6.4	59.4 ± 12.6	29.6 ± 7.6	39.4 ± 6.4															
N#Cc1ccc2[nH]c(-c3ccc(C(=O)NN=Cc4ccco4)cc3)nc2c1 [Compound 3a, 4‐(5‐Cyano‐1H‐benzo[d]imidazol‐2‐yl)‐N′‐[(furan‐2‐yl)methylene]benzohydrazide]							84.6 ± 9.6	71.8 ± 3.68	86.4 ± 1.28	98.9 ± 7.94									
Cc1ccc(C=NNC(=O)c2ccc(-c3nc4cc(C#N)ccc4[nH]3)cc2)o1 [Compound 3b, 4‐(5‐Cyano‐1H‐benzo[d]imidazol‐2‐yl)‐N′‐[(5‐methylfuran‐2‐yl)methylene]benzohydrazide]					175,225 pg/mL	175,225 pg/ml	> 100	89.6 ± 5.74	88.4 ± 2.18	> 100									
N#Cc1ccc2[nH]c(-c3ccc(C(=O)NN=Cc4ccc([N+](=O)[O-])o4)cc3)nc2c1 [Compound 3c, 4‐(5‐Cyano‐1H‐benzo[d]imidazol‐2‐yl)‐N′‐[(5‐nitrofuran‐2‐yl)methylene]benzohydrazide]					150,225 pg/mL	150,225 pg/ml	> 100	90.6 ± 12.1	> 100	> 100									
Cc1ccsc1C=NNC(=O)c1ccc(-c2nc3cc(C#N)ccc3[nH]2)cc1 [Compound 3d, 4‐(5‐Cyano‐1H‐benzo[d]imidazol‐2‐yl)‐N′‐[(3‐methylthiophen‐2‐yl)methylene]benzohydrazide]					83,975 pg/mL	83,975 pg/ml	> 100	39.1 ± 8.28	25.6 ± 16.4	20.5 ± 8.34	6.59	12.55	4.06	2.75	significantly decreased	significantly decreased	significantly decreased	significantly decreased	
N#Cc1ccc2[nH]c(-c3ccc(C(=O)NN=Cc4ccncc4)cc3)nc2c1 [Compound 3e, 4‐(5‐Cyano‐1H‐benzo[d]imidazol‐2‐yl)‐N′‐[(pyridine‐4‐yl)methylene]benzohydrazide]					120,225 pg/mL	120,225 pg/ml	> 100	> 100	> 100	> 100									
N#Cc1ccc2[nH]c(-c3ccc(C(=O)NN=Cc4cccs4)cc3)nc2c1 [Compound 3g, 4‐(5‐Cyano‐1H‐benzo[d]imidazol‐2‐yl)‐N′‐[(thiophen‐2‐yl)methylene]benzohydrazide]					95,745 pg/mL	95,745 pg/ml	> 100	> 100	> 100	> 100									
N#Cc1ccc2[nH]c(-c3ccc(C(=O)NN=Cc4cccnc4)cc3)nc2c1 [Compound 3h, 4‐(5‐Cyano‐1H‐benzo[d]imidazol‐2‐yl)‐N′‐[(pyridine‐3‐yl)methylene]benzohydrazide]					119,425 pg/mL	119,425 pg/ml	> 100	> 100	> 100	> 100									
N#Cc1ccc2[nH]c(-c3ccc(C(=O)NN=Cc4ccc([N+](=O)[O-])s4)cc3)nc2c1 [Compound 3i, 4‐(5‐Cyano‐1H‐benzo[d]imidazol‐2‐yl)‐N′‐[(5‐nitrothiophen‐2‐yl)methylene]benzohydrazide]					92,225 pg/mL	92,225 pg/ml	> 100	> 100	> 100	> 100									
Cc1ccc(C=NNC(=O)c2ccc(-c3nc4cc(C#N)ccc4[nH]3)cc2)s1 [Compound 3j, 4‐(5‐Cyano‐1H‐benzo[d]imidazol‐2‐yl)‐N′‐[(5‐methylthiophen‐2‐yl)methylene]benzohydrazide]					82,745 pg/mL	82,745 pg/ml	> 100	45.8 ± 15.6	> 100	> 100	3.07						significantly decreased	significantly decreased	105.7
